Data published in patent publication US20240425464A1, “Substituted Monohydrazides as Potent Antifungal Agents” (University of Kentucky Research Foundation, priority 2023, published 2024).
≈ marks a conversion by molar mass, not a printed value.

Experiments:
[1] = system: Candida duobushaemulonii AR Bank #391; assay: MIC determination by in vitro antifungal assay; type: cell-based; settings: Candidozyma duobushaemuli, read-out: MIC
Method: (§1) The antifungal agent amphotericin B (AmB) was purchased from VWR (Radnor PA, USA). AmB was dissolved in DMSO at a final concentration of 5 mg/mL and was stored at −20° C., protected from light. Candida albicans American Type Culture Collection (ATCC) 10231 (strain A), C. albicans ATCC 64124 (B), and C. albicans ATCC MYA-2876 (C) were obtained from Utah State University. C. albicans ATCC 90819 (D), C. albicans ATCC MYA-2310 (E), C. albicans ATCC MYA-1237 (F), C. albicans ATCC MYA-1003 (G), Candida glabrata ATCC 2001 (H), Candida krusei ATCC 6258 (I), Candida parapsilosis ATCC 22019 (J), Cryptococcus neoformans ATCC MYA-895 (M), Aspergillus terreus ATCC MYA-3633 (N), and Aspergillus flavus ATCC MYA-3631 (0) were obtained from the American Type Culture Collection (ATCC; Manassas, VA, USA). Aspergillus nidulans ATCC 38163 (P) was obtained from University of Kentucky. Clinically derived Aspergillus fumigatus NRRL 163 (Q), A. fumigatus NRRL 5109 (R), and A. fumigatus NRRL 6113 (S) were obtained from Northern Regional Research Laboratory (NRRL). Candida auris 384 (K), C. auris 390 (L), and fungal strains 381-400 (including 10 C. auris (AR Bank #381-390), 3 Candida duobushaemulonii (AR Bank #391, AR Bank #392, and AR Bank #394), 2 Candida haemulonii (AR Bank #393 and AR Bank #395), 1 Kodameae ohmeri (AR Bank #396), 1 C. krusei (AR Bank #397), 1 Candida lusitaniae (AR Bank #398), and 2 Saccharomyces cerevisiae strains (AR Bank #399 and AR Bank #400)) were part of a larger fungal library from the AR Bank maintained by the Centers for Disease Control and Prevention (CDC; Atlanta, GA, USA). Filamentous fungi and yeasts were cultivated at 35° C. in RPMI 1640 medium (with L-glutamine, without sodium bicarbonate, Sigma-Aldrich, St. Louis, MO) buffered to a pH of 7.0 with 0.165 M morpholinepropanesulfonic acid (MOPS) buffer (Sigma-Aldrich). For cytotoxicity assays, HepG2 and the mouse macrophage cell line J774A.1 were obtained from University of Kentucky. The human embryonic kidney cell line, HEK-293, was bought from the ATCC. Mammalian cells were grown in Dulbecco's Modified Eagle's Medium (DMEM) (from VWR) with 10% fetal bovine serum (FBS) (from VWR) and 1% Pen/Strep (from ATCC). Cell lines were cultured at 37° C. with 5% CO2 and passaged by trypsinization with 0.05% trypsin: 0.53 mM EDTA (from Sigma-Aldrich).
(§2) From the actively growing yeast culture, 100 µL were then transferred to 900 μL of RPMI 1640 medium and re-adjusted to achieve OD600 of 0.12 (˜1×10^6 CFU/mL). The cell suspension was further diluted to achieve 1:100 in RPMI 1640 medium.

[2] = system: Candida duobushaemulonii AR Bank #392; assay: MIC determination by in vitro antifungal assay; type: cell-based; settings: Candidozyma duobushaemuli, read-out: MIC
Method: as §1, §2

[3] = system: Candida duobushaemulonii AR Bank #394; assay: MIC determination by in vitro antifungal assay; type: cell-based; settings: Candidozyma duobushaemuli, read-out: MIC
Method: as §1, §2

[4] = system: Candida haemulonii AR Bank #393; assay: MIC determination by in vitro antifungal assay; type: cell-based; settings: Candidozyma haemuli, read-out: MIC
Method: as §1, §2

[5] = system: Candida haemulonii AR Bank #395; assay: MIC determination by in vitro antifungal assay; type: cell-based; settings: Candidozyma haemuli, read-out: MIC
Method: as §1, §2

[6] = system: Candida krusei AR Bank #397; assay: MIC determination by in vitro antifungal assay; type: cell-based; settings: Pichia kudriavzevii; Candida strain AR Bank #397; read-out: MIC
Method: as §1, §2

[7] = system: Candida lusitaniae AR Bank #398; assay: MIC determination by in vitro antifungal assay; type: cell-based; settings: Clavispora lusitaniae; Candida strain AR Bank #398; read-out: MIC
Method: as §1, §2

[8] = system: Kodameae ohmeri AR Bank #396; assay: MIC determination by in vitro antifungal assay; type: cell-based; settings: strain AR Bank #396; read-out: MIC
Method: as §1, §2

[9] = system: Saccharomyces cerevisiae AR Bank #399; assay: MIC determination by in vitro antifungal assay; type: cell-based; settings: read-out: MIC
Method: as §1, §2

[10] = system: C. albicans ATCC 10231 (strain A) biofilm formation; assay: Prevention of biofilm formation assay; type: cell-based, Candida albicans
Method: Biofilm prevention assays were set up identically to the ordinary MIC experiment, where compounds were diluted, and the fungi added. After overnight growth, the plates were washed as in the biofilm disruption assay and stained and measured in the same fashion.
A large amount of fungal cells were exposed to the monohydrazides at time 0 h to evaluate the effect of these compounds in the prevention of Candida biofilm formation (FIG. 5B). […] Although some of these monohydrazides were able to prevent biofilm formation, none of these compounds had any effect in terms of the disruption of already pre-formed biofilms (FIG. 5A).

[11] = system: panel of ten C. auris strains (AR Bank #381-390); assay: MIC determination, summary over the C. auris panel; type: cell-based, Candida auris; settings: Candidozyma auris; against all ten C. auris strains tested (AR Bank #381-390)
Method: as §1, §2

O=C(NNc1cc(F)ccc1F)c1ccccn1 [Compound 2h]
MIC [1]: 0.49 µg/mL (≈ 1.97 µM) | MIC [2]: 0.24 µg/mL (≈ 0.963 µM) | MIC [3]: 0.24 µg/mL (≈ 0.963 µM) | MIC [4]: 0.98 µg/mL (≈ 3.93 µM) | MIC [5]: 0.24 µg/mL (≈ 0.963 µM) | MIC [6]: 0.24 µg/mL (≈ 0.963 µM) | MIC [7]: 0.49 µg/mL (≈ 1.97 µM) | MIC [8]: 0.12 µg/mL (≈ 0.482 µM) | MIC [9]: 1.95 µg/mL (≈ 7.82 µM) | prevention of biofilm formation [10]: not capable of preventing | MIC [11]: 0.06 to 1.95 µg/mL (≈ 0.241 to 7.82 µM)
